According to article PMC4138103 (PLoS ONE, 2014):

Experiments:
Sprague-Dawley rats = test: Sperm analyses, cauda epididymis; assay type: in vivo, Rattus norvegicus; settings: males
Method: Frozen right cauda epididymides were homogenized for 2 min using Ultra Turrax homogenizer (model T25 basic, IKA-WERKE GmbH, Staufen, Germany) in 20 ml 0.9% saline containing 0.05% Triton X-100 and 0.01% thiomersal. Homogenates were diluted to about 1×10^6 sperms/ml, and counts from 4 hemocytometer chambers were counted and averaged.

[1] = rats; cited from earlier work
[2] = tested on: Nicotinic receptor subunits α4 and β2; test: Brain [3H]epibatidin binding in exposed rats; assay type: in vivo, Rattus norvegicus; settings: males
Method: The membrane containing pellet was homogenized in 15 volumes of 50 mM Tris-HCl buffer at pH 7.4, incubated at 25°C for 30 min, and centrifuged again at 100 000 g. The pellet from the second centrifugation was dissolved in 4 ml 0.32 M sucrose/g brain (v/w), with a final protein concentration of […] and frozen at −40°C.
Nicotinic receptor subunits α4 and β2 were analyzed as above with the following modifications: 8 µl (0.1 mg protein) of the same membrane preparation was incubated with 415–472 µl buffer (50 mM tris-HCL, pH 7.4), 0.1–1 nM [^3H]epibatidin and 0.1 mM (-)nicotine for measuring unspecific binding, to a final volume of 500 µl. […] The samples were incubated with [^3H]epibatidin for 1 h followed by vacuum filtration and scintillation counting.
Samples were vacuum filtrated trough Whatman glassfiber-filters (type GF/B, 25 mm) and washed 3×3 ml ice-cold incubation buffer. To reduce unspecific binding, the filters where pre-wetted in 1% polyetylenimine for 60 min. The filters were placed into a filtration bucket and coupled to a mechanical vacuum pump. After filtration the bucket was disassembled and the filters transferred into plastic tubes and 4 ml filtercount fluid was added. Radioactive binding was measured as disintegration per minute (DPM1) in a scintillation counter (Tri-Carb 3100TR, Perkin Elmer). The analyses were carried out in duplicates

[3] = Margin of exposure calculations; design: species or system human; settings: for MoE, Liver p53 / MoE, Spontanous locomotor activity: females; for MoE, Liver retinol / MoE, Serum chlolesterol / MoE, Serum thyroxine / MoE, Serum triglycerids: males
From the text: They include values from the WHO mother's milk survey in 2001–2002 [1], [2], adipose tissue from the Finnish general population in 1997–1999 [83] and, plasma from the Baltic Sea fisherman cohort in 1997–1999 [41] and placenta from a Danish–Finnish joint prospective cohort in 1997–2001 [40]. WHO has established uncertainty factors (UF) for estimating tolerable intake levels of environmental chemicals. As rat and human tissue concentration data are used no interspecies toxicokinetic UF is needed. A toxicodynamic factor of 2.5 is applied to cover the interspecies variability and a factor of 10 to cover the inter-individual variability in humans. Thus, the UF of 25 is considered adequate for human health endpoints of NDL-PCBs.

[4] = total dose 1000 mg/kg bw, group mean
[5] = Worst case: the most exposed fisherman
[6] = human cohort Baltic Sea fishermen
[7] = human cohort General population (Finland)
[8] = human cohort Placenta (Denmark)
[9] = human cohort Placenta (Finland)

Clc1cc(Cl)c(-c2cc(Cl)c(Cl)c(Cl)c2Cl)cc1Cl [PCB 180, 2,2′,3′,4,4′,5,5′-heptachlorobiphenyl]
Cauda epididymal sperm density (Sprague-Dawley rats; 1700 mg/kg bw vs control): not affected | Sperm density (Sprague-Dawley rats; total dose 1700 mg/kg bw, cauda epididymis, group mean): 691 106/g tissue | Sperm count (Sprague-Dawley rats; total dose 1700 mg/kg bw, group mean): 94.0 106/cauda epididymis | Elimination half-life [1]: 90 days | Specific binding of [3H]epibatidin to high or low affinity sites of nicotinic receptor subunit α4/β2 vs controls ([2]; 1000 mg/kg bw): no significant difference | High affinity nicotinic receptor binding (α4/β2) [2, 4]: 656 DPM1 | Low affinity nicotinic receptor binding (α4/β2) [2, 4]: 1492 DPM1 | MoE, Liver p53 [3, 5]: 25 | MoE, Spontanous locomotor activity [3, 5]: 0.438 | MoE, Liver p53 [3, 6]: 65.2 | MoE, Spontanous locomotor activity [3, 6]: 1.14 | MoE, Liver p53 [3, 7]: 316 | MoE, Spontanous locomotor activity [3, 7]: 5.53 | MoE, Liver p53 ([3]; human cohort Mother's milk): 655 | MoE, Spontanous locomotor activity ([3]; human cohort Mother's milk): 11.5 | MoE, Liver p53 [3, 8]: 3109 | MoE, Spontanous locomotor activity [3, 8]: 54.4 | MoE, Liver p53 [3, 9]: 5396 | MoE, Spontanous locomotor activity [3, 9]: 94.4 | MoE, Liver retinol [3, 5]: 15.7 | MoE, Serum chlolesterol [3, 5]: 76.2 | MoE, Serum thyroxine [3, 5]: 97.5 | MoE, Serum triglycerids [3, 5]: 6.05 | MoE, Liver retinol [3, 6]: 40.9 | MoE, Serum chlolesterol [3, 6]: 199 | MoE, Serum thyroxine [3, 6]: 254 | MoE, Serum triglycerids [3, 6]: 15.8 | MoE, Liver retinol [3, 7]: 198 | MoE, Serum chlolesterol [3, 7]: 963 | MoE, Serum thyroxine [3, 7]: 1233 | MoE, Serum triglycerids [3, 7]: 76.5 | MoE, Liver retinol ([3]; human cohort Mother's milk): 410 | MoE, Serum chlolesterol ([3]; human cohort Mother's milk): 1996 | MoE, Serum thyroxine ([3]; human cohort Mother's milk): 2555 | MoE, Serum triglycerids ([3]; human cohort Mother's milk): 159 | MoE, Liver retinol [3, 8]: 1948 | MoE, Serum chlolesterol [3, 8]: 9472 | MoE, Serum thyroxine [3, 8]: 12124 | MoE, Serum triglycerids [3, 8]: 752 | MoE, Liver retinol [3, 9]: 3381 | MoE, Serum chlolesterol [3, 9]: 16439 | MoE, Serum thyroxine [3, 9]: 21043 | MoE, Serum triglycerids [3, 9]: 1306
